Active and inactive are the calls of the source. The calls are words filed in the database; no cut-off is given here.
What was measured:
[1] = target: T1, Cyclin-dependent kinase 2 (Homo sapiens, UniProt P24941); experiment: Binding affinity to full-length human CDK2 expressed in Escherichia coli BL21 (DE3) pLysS cells at 5 mM by isothermal titration calorimetry
[2] = target: T1, Cyclin-dependent kinase 2; experiment: Binding affinity to full-length human CDK2 expressed in Escherichia coli BL21 (DE3) pLysS cells by isothermal titration calorimetry
[3] = target: T1, Cyclin-dependent kinase 2; experiment: Binding affinity to full-length human CDK2 expressed in Escherichia coli BL21 (DE3) pLysS cells at 1 to 5 mM by isothermal titration calorimetry

Row | SMILES | Activity [1] | Kd [2] [µM] | further results
1 | Nc1nc(I)c2nc[nH]c2n1 |  | 350 | 
2 | Nc1nc(Oc2cccc(CC(=O)O)c2)c2nc[nH]c2n1 |  |  | Activity [3]: inactive

Second part, led by results:

Row | Activity [1] | Kd [2] [µM] | SMILES | further results
3 | inactive |  | Brc1cn[nH]c1 | 
4 | inactive |  | NS(=O)(=O)c1ccc(Br)cc1 | 
5 |  | 50 | Nc1nc(-c2cccc(CC(=O)O)c2)c2nc[nH]c2n1 | Activity [2]: Dose-dependent effect

— ChEMBL document CHEMBL4390671, “FragLites-Minimal, Halogenated Fragments Displaying Pharmacophore Doublets. An Efficient Approach to Druggability Assessment and Hit Generation” (J Med Chem, 2019)
